Measured values reported in ChEMBL document CHEMBL4715922, “Methionine Adenosyltransferase Inhibitors for the Treatment of Cancer” (ACS Med Chem Lett, 2021).

What was measured:
[1] = test system: HCT-116; experiment: Antiproliferative activity against human HCT-116 cells harboring wild type […] assessed as reduction in cell growth incubated for 4 days by Cell Titer-Glo assay; assay type: functional, cell-based; conditions: HCT-116, 96 h
[2] = target: T1, S-adenosylmethionine synthase isoform type-2 (Homo sapiens, UniProt P31153); experiment: Inhibition of recombinant human MAT2A expressed in baculovirus infected Sf9 cells using L-methionine as substrate incubated for 60 mins followed by substrate addition and measured after 60 mins by S-adenosyl methionine assay kit method
T1 sequence (P31153 whole entry, canonical isoform): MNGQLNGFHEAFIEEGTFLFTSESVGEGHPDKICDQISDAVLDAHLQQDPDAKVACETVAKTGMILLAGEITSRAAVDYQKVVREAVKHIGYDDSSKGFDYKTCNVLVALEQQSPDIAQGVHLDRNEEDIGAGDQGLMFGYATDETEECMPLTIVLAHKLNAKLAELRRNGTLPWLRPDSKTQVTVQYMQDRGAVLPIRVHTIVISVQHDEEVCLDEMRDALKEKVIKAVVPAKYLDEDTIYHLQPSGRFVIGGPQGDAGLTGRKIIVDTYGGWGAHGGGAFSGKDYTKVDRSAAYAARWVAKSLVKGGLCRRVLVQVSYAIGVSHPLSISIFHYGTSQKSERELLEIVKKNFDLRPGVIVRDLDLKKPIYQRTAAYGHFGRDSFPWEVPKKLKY

[3] = target: T1, S-adenosylmethionine synthase isoform type-2; experiment: Inhibition of MAT2A in human HCT-116 cells assessed as reduction in SAM incubated for 72 hrs by LC-MS/MS analysis; assay type: cell-based
[4] = test system: HCT-116; experiment: Antiproliferative activity against isogenic pair of human HCT-116 cells harboring […] del mutant assessed as reduction in cell growth incubated for 4 days by Cell Titer-Glo assay; assay type: cell-based; conditions: HCT-116, 96 h

| Structure (SMILES) | IC50 [1] [nM] | IC50 [2] [nM] | IC50 [3] [nM] | IC50 [4] [nM] |
| --- | --- | --- | --- | --- |
| [2H]C([2H])([2H])Oc1c2cc(-n3nc4ccc(OCC(F)F)nc4c(-c4ccc(OC(F)F)cc4)c3=O)ccc2nn1C | ≥ 100 | < 100 | < 100 | < 100 |
| Cn1cc2cc(-n3nc4ccc(OCC(F)(F)F)nc4c(-c4ccc(Cl)cc4)c3=O)ccc2n1 | ≥ 100 | < 100 | < 100 | < 100 |
| Cn1cc2cc(-n3nc4ccc(OCC(F)(F)F)nc4c(-c4ccc(OC(F)F)cc4)c3=O)ccc2n1 | ≥ 100 | < 100 | < 100 | < 100 |
| CCOc1ccc2nn(-c3ccc4nn(C)cc4c3)c(=O)c(-c3ccc(OC)cc3)c2n1 | ≥ 100 | < 100 | < 100 | < 100 |
| COc1ccc(-c2c(=O)n(-c3ccc4nn(C)cc4c3)nc3ccc(OCC(F)F)nc23)cn1 | ≥ 100 | < 100 | < 100 | < 100 |
| Cn1cc2cc(-n3nc4ccc(OCC(F)F)nc4c(-c4ccc(OC(F)F)cc4)c3=O)ccc2n1 | ≥ 100 | < 100 | < 100 | < 100 |
| O=c1c(-c2ccc(OC(F)F)cc2)c2nc(OCC(F)F)ccc2nn1-c1ccc2ncsc2c1 | < 100 | < 100 | < 100 | < 100 |
| Cn1cc2cc(-n3nc4ccc(SCC(F)(F)F)nc4c(-c4ccc(OC(F)F)cc4)c3=O)ccc2n1 | ≥ 100 | < 100 | < 100 | < 100 |
| Cn1cc2cc(-n3nc4ccc(OCCC(F)(F)F)nc4c(-c4ccc(OC(F)F)cc4)c3=O)ccc2n1 | ≥ 1000 | < 100 | ≥ 100 | ≥ 100 |
| O=c1c(-c2ccc(OC(F)F)cc2)c2nc(OCC(F)F)ccc2nn1-c1ccc2c(c1)CCO2 | ≥ 100 | < 100 | < 100 | < 100 |
